Tests used:
PC12 cells = assay: Neuroprotection against rotenone-induced toxicity in PC12 cells (MTT); conditions: Rattus norvegicus, PC-12, 24 h, read-out: IC50 of protection from rotenone-induced toxicity
Protocol: Control cells were incubated in an equivalent volume of DMSO to a final concentration of 0.3%. Neuroprotective effects of the tested compounds on the toxicity induced by 6-OHDA or rotenone in PC12 cells were evaluated as described previously with slight modifications. In brief, cells were pre-treated with the tested compounds or rasagiline at the indicated concentrations for 4 h. Next, they were exposed to 6-OHDA (50 μM) or rotenone (1 μM) for 24 h. In another set of experiments, the influence of HO-1 inhibitor, ZnPP, on the neuroprotective effects of the tested compounds against 6-OHDA-induced oxidative damage was investigated as previously reported. Briefly, the cells were pre-treated with the tested compounds for 4 h and then incubated with 0.2 µM of ZnPP for 30 min. Subsequently, 6-OHDA was added at a final concentration of 50 µM and incubated for 24 h.
After the desired treatment, cell viability was determined by MTT assay as described previously. Briefly, MTT was added to the cells at the final concentration of 0.5 mg/mL, which was followed by incubation for 3 h at 37 °C. The supernatants were carefully removed, and then, 300 μL of DMSO was added to each well to dissolve formazan precipitate. The absorbance of the dissolved solution was measured at 550 nm using a microplate reader (SpectraMax M2^e, Molecular Devices, Sunnyvale, CA, USA). The cell viability was presented as the percentage of the absorbance measured in the vehicle-treated control cells.

Nrf2 = assay: Nuclear translocation of Nrf2 in PC12 cells (Western blotting); type: cell-based, rat; conditions: for time of peak Nrf2 protein expression: 10 μM; for nuclear translocation of Nrf2: PC12 nuclear fraction, Western blotting
Protocol: PC12 cells were seeded on 35 mm dishes at a density of 2 × 10^6 cells/dish and kept at 37 °C in humidified incubator for at least 24 h. Cells were treated with a series of concentrations of the tested compounds for 12 h or with the tested compounds (10 μM) for the indicated time points. Control cells were treated with serum-free media containing 0.3% DMSO instead. Total cell lysates were prepared according to the methods described previously, and stored at −20 °C until used. To evaluate the effects of the tested compounds on the nuclear translocation of Nrf2, nuclear fraction was separated from cytosolic fraction using NE-PER Nuclear and Cytoplasmic Extraction Reagents (Rockford, IL, USA), following the manufacturer’s directions. The protein concentrations were assessed using a BioRad DC protein assay kit (BioRad, Hercules, CA, USA). Equal amounts of proteins (20 µg) were resolved on 12% or 8% gels via sodium dodecyl sulfate-polyacrylamide gel electrophoresis and electrophoretically transferred onto nitrocellulose membrane (Whatman, Clifton, NJ, USA). Subsequently, immunoblotting was performed using anti-HO-1 or anti-Nrf2 antibodies, respectively, according to the procedures reported previously. Beta-actin, a highly conserved cytoskeletal protein, was used as a loading control of cell lysates to normalize the level of HO-1, while nuclear protein lamin B was used as a nuclear loading control to normalize the level of Nrf2 in the nuclear fraction. Finally, the immunoreactive bands corresponding to HO-1 or Nrf2 proteins were visualized using Clarity^TM Western ECL substrate (Bio-Rad, Hercules, CA, USA) using the BioRad ChemiDoc XRS imaging system (Bio-Rad, Hercules, CA, USA).
Nrf2 is a transcription factor involved in the expression of antioxidant defense enzymes in response to oxidative stress. Upon nuclear translocation, Nrf2 binds to antioxidant response elements (AREs), leading to the transcription of ARE genes such as HO-1 [111]. […] Nrf2 protein expression peaked after 6 h of treatment with each compound at 10 μM (Figure 15A,B). […] The nuclear translocation of Nrf2 was increased by 3n and 3r in concentration-dependent manners (Figure 16C,D).

| SMILES | IC50 (PC12 cells) | time of peak Nrf2 protein expression (Nrf2) | nuclear translocation of Nrf2 (Nrf2) |
| --- | --- | --- | --- |
| O=C(Nc1ccc2[nH]ccc2c1)c1cccc(Cl)c1 [3n, 3-Chloro-N-(1H-indol-5-yl)benzamide] | 1400 nM | 6 h | increased |
| O=C(Nc1ccc2[nH]ccc2c1)c1cccc(Br)c1 [3r, 3-Bromo-N-(1H-indol-5-yl)benzamide] | 870 nM | 6 h | increased |
